Results as given in patent US20220304976A1, “Method of simultaneously treating viral disease caused coronavirus, its variants and mutants using a pharmaceutical micronutrient composition” (priority 2021, published 2022).

System: A549 cells expressing SARS-CoV-2 spike protein fusing with A549 cells overexpressing hACE2
Type: cell-based, human

Molecule | reduction of cell-cell fusion (in words) | decrease of cell attachment (cell-cell fusion) [%]
Theaflavine-3′3-digallate | can reduce cell-cell fusion | 
Oc1ccc2c(c1)OC[C@]1(O)Cc3cc(O)c(O)cc3[C@H]21 [Brazilin] | can reduce cell-cell fusion | 40
COc1cc(/C=C/C(=O)CC(=O)/C=C/c2ccc(O)c(OC)c2)ccc1O [Curcumin] | can reduce cell-cell fusion | 
